Experimental findings from patent US9321764B2, “Dihydro-pyrrolopyridinone inhibitors” (AbbVie Inc., priority 2013, dated 2016) are described below.

The target in one assay is T1, BRD4 (BDII_E352-M457) (Homo sapiens, UniProt O60885).
T1 construct: proliferation; Protocol; made in house
The experiment in a line: TR-FRET bromodomain binding assay, second bromodomain of BRD4. The following applies: His-tagged BD2, 30 nM Alexa647 probe; TR-FRET protocol A-E given per row. A digest of the protocol:
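His-tagged BRD4 BD2 ([…]) competed against an Alexa647-labelled BET-inhibitor probe in TR-FRET. Buffer was 20 mM sodium phosphate pH 6.0, 50 mM NaCl, 1 mM EDTA, 0.01% Triton X-100, 1 mM DTT, with method D DMSO series of 2.5 mM–800 nM (stock range). IC50 from 4-parameter fit, Ki from probe Kd and concentration.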

A further assay concerns the target T2, BRD4 (BDI_K57-E168) (Homo sapiens, UniProt O60885).
T2 construct: BD1: amino acids K57-E168; made in house
The assay is described as follows: TR-FRET bromodomain binding assay, first bromodomain of BRD4. The settings on record: His-tagged BD1, 100 nM Alexa647 probe; TR-FRET protocol A-E given per row. In outline:
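His-tagged BRD4 BD1 (K57-E168), 8 nM, with 1 nM Eu-anti-His antibody and 100 nM Alexa647-labelled BET-inhibitor probe in pH 6.0 phosphate buffer, 2% DMSO. TR-FRET read after 1 h at room temperature. IC50 from 4-parameter fit, converted to Ki using probe Kd and concentration.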

Assay [1] deals with breast cancer cell line MX-1. The assay is described as follows: MX-1 cell line proliferation assay. It is filed as cell-based. The settings on record: Homo sapiens, MX1, 72 h, MX-1 cells, 3-day proliferation assay, Cell Titer Glo; read-out: Cellular proliferation EC50. A digest of the protocol:
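Cells seeded at 5000/well in RPMI 1640 with 10% FBS, allowed to adhere overnight at 37 °C, then exposed to compound at final 0.0001–3 μM for 3 days. Viability read by Cell Titer Glo luminescence, normalized to DMSO controls; EC50 from sigmoidal curve fit.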
A general note: Cellular ATP, detected with luciferase, serves as a proxy for viable cell number.

One may read the Ki as the equilibrium dissociation constant of an inhibitor or competing ligand from its target. Lower therefore signals a stronger hold on the target. In the case of `Cn1cc(-c2cc(NC(=O)c3cc(Cl)ccc3Cl)ccc2Oc2ccc(F)cc2F)c2cc[nH]c(=O)c21` [Example 148, 2,5-dichloro-N-[4-(2,4-difluorophenoxy)-3-(1-methyl-7-oxo-6,7-dihydro-1H-pyrrolo[2,3-c]pyridin-3-yl)phenyl]benzamide], the Ki at BRD4 (BDII_E352-M457) was found to be 0.15 µM; on BRD4 (BDI_K57-E168), 0.0651 µM. Also, the EC50 in assay [1] was determined as 0.17 µM.
For `Cc1cnc(C(=O)Nc2ccc(Oc3ccc(F)cc3F)c(-c3cn(C)c4c(=O)[nH]ccc34)c2)cn1` [Example 151, N-[4-(2,4-difluorophenoxy)-3-(1-methyl-7-oxo-6,7-dihydro-1H-pyrrolo[2,3-c]pyridin-3-yl)phenyl]-5-methylpyrazine-2-carboxamide] the same measures were 0.032 µM, 0.0161 µM and 0.2 µM.
As for `Cn1cc(-c2cc(NC(=O)Cc3cccc(Oc4ccccc4)c3)ccc2Oc2ccc(F)cc2F)c2cc[nH]c(=O)c21` [Example 154, N-[4-(2,4-difluorophenoxy)-3-(1-methyl-7-oxo-6,7-dihydro-1H-pyrrolo[2,3-c]pyridin-3-yl)phenyl]-2-(3-phenoxyphenyl)acetamide], the values for the Ki on BRD4 (BDII_E352-M457) and at BRD4 (BDI_K57-E168) were 0.828 µM and 1.76 µM, respectively. The EC50 in assay [1] was 1.59 µM.
For `CC(=O)Nc1ccc(C(=O)Nc2ccc(Oc3ccc(F)cc3F)c(-c3cn(C)c4c(=O)[nH]ccc34)c2)cc1` [Example 155, 4-(acetylamino)-N-[4-(2,4-difluorophenoxy)-3-(1-methyl-7-oxo-6,7-dihydro-1H-pyrrolo[2,3-c]pyridin-3-yl)phenyl]benzamide], in that order: 0.163 µM, 0.0278 µM and 0.31 µM.
For `Cn1cc(-c2cc(NCc3ccc(C#N)cc3)ccc2Oc2ccc(F)cc2F)c2cc[nH]c(=O)c21` [Example 167, 4-({[4-(2,4-difluorophenoxy)-3-(1-methyl-7-oxo-6,7-dihydro-1H-pyrrolo[2,3-c]pyridin-3-yl)phenyl]amino}methyl)benzonitrile] the same measures were 0.156 µM, 0.0328 µM and 0.338 µM.
As to `Cc1cccnc1CNc1ccc(Oc2ccc(F)cc2F)c(-c2cn(C)c3c(=O)[nH]ccc23)c1` [Example 169, 3-[2-(2,4-difluorophenoxy)-5-{[(3-methylpyridin-2-yl)methyl]amino}phenyl]-1-methyl-1,6-dihydro-7H-pyrrolo[2,3-c]pyridin-7-one], the figures for the Ki on BRD4 (BDII_E352-M457) and at BRD4 (BDI_K57-E168) were 0.107 µM and 0.0265 µM, respectively. For the same compound, the EC50 in assay [1] stood at 0.132 µM.
Consider `Cn1cc(-c2cc(NCc3ccc(OCc4ccccc4)cc3)ccc2Oc2ccc(F)cc2F)c2cc[nH]c(=O)c21` [Example 170, 3-[5-{[4-(benzyloxy)benzyl]amino}-2-(2,4-difluorophenoxy)phenyl]-1-methyl-1,6-dihydro-7H-pyrrolo[2,3-c]pyridin-7-one], for which the results for the Ki at BRD4 (BDII_E352-M457) and on BRD4 (BDI_K57-E168) were 1.1 µM and 0.216 µM, respectively. Also, in assay [1], the EC50 turned out to be 1.02 µM.
For `Cc1nn(-c2ccccc2)c(Cl)c1CNc1ccc(Oc2ccc(F)cc2F)c(-c2cn(C)c3c(=O)[nH]ccc23)c1` [Example 171, 3-[5-{[(5-chloro-3-methyl-1-phenyl-1H-pyrazol-4-yl)methyl]amino}-2-(2,4-difluorophenoxy)phenyl]-1-methyl-1,6-dihydro-7H-pyrrolo[2,3-c]pyridin-7-one] the same measures were 0.384 µM, 0.176 µM and 0.198 µM.
As to `Cn1cc(-c2cc(NCc3cn4c(n3)CCC4)ccc2Oc2ccc(F)cc2F)c2cc[nH]c(=O)c21` [Example 176, 3-{2-(2,4-difluorophenoxy)-5-[(6,7-dihydro-5H-pyrrolo[1,2-a]imidazol-2-ylmethyl)amino]phenyl}-1-methyl-1,6-dihydro-7H-pyrrolo[2,3-c]pyridin-7-one], the values for the inhibitory constant (Ki) at BRD4 (BDII_E352-M457) and at BRD4 (BDI_K57-E168) were 0.101 µM and 0.0423 µM, respectively. In assay [1], the EC50 was 0.289 µM.
